From ChEMBL document CHEMBL2169748 (J Med Chem, 2012)
≈ marks a conversion by molar mass, not a printed value.

Tests used:
[1] = Volume of distribution at steady state in rat; type: ADME, organism-based; conditions: in vivo, read-out: Vdss
[2] = Half life in rat; type: ADME, organism-based; conditions: in vivo
[3] = Half life in dog; type: ADME, organism-based, Canis lupus familiaris; conditions: in vivo
[4] = Clearance in rat; type: ADME, organism-based; conditions: in vivo
[5] = Clearance in dog; type: ADME, organism-based, Canis lupus familiaris; conditions: in vivo
[6] = Volume of distribution at steady state in dog; type: ADME, organism-based, Canis lupus familiaris; conditions: in vivo, read-out: Vdss
[7] = Oral bioavailability in dog; type: ADME, organism-based, Canis lupus familiaris; conditions: in vivo
[8] = Oral bioavailability in rat; type: ADME, organism-based; conditions: in vivo
[9] = Solubility in aqueous solution at pH 6.5; type: physicochemical
[10] = Permeability across MDCK cells; type: ADME, cell-based, Canis lupus familiaris; conditions: dog

CCc1nc2ccccc2n1-c1nc(N2CCOCC2)c2nc(CN3CCC(C(C)(C)O)CC3)n(C)c2n1
Vd [1]: 4.1 L/kg | half-life [2]: 1.5 h | half-life [3]: 6.4 h | clearance [4]: 19 mL/min/kg | clearance [5]: 5 mL/min/kg | Vd [6]: 2 L/kg | bioavailability [7]: > 100% | bioavailability [8]: 92%

CCc1nc2ccccc2n1-c1nc(N2CCOCC2)c2nc(CN3CC(C4CCOCC4)C3)n(C)c2n1
Vd [1]: 6.5 L/kg | half-life [2]: 2.6 h | half-life [3]: 3.6 h | clearance [4]: 34 mL/min/kg | solubility [9]: 338 µg/mL (≈ 654 µM) | clearance [5]: 25 mL/min/kg | Papp [10]: 16 ×10⁻⁶ cm/s | Vd [6]: 6.5 L/kg | bioavailability [7]: 56%
